Common to all, as to assay: inhibition of tumour cell growth, NCI panel, 48 h
The test system of assay [1] is UACC-62.
In assay [2] the test system is HOP-62.
Assay [3] deals with A549.
Assay [4] concerns SK-MEL-28.
Assay [5] relates to CAKI-1.
Assay [6] concerns HOP-92.
For assay [7], the system named is K562.
Assay [8] deals with EKVX.
In assay [9] the test system is MDA-N.
The test system of assay [10] is SN12C.
The subject of assay [11] is SF-268.
In assay [12] the test system is NCI-H226.
For assay [13], the system named is MOLT-4.
The test system of assay [14] is RXF 393.
Assay [15] relates to MCF7.
The subject of assay [16] is UO-31.
Assay [17] relates to MDA-MB-435.
In assay [18] the test system is HCT-15.
Assay [19] concerns SK-MEL-5.

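48-hour exposure; five concentrations; linearly interpolated endpoints. The concentration for 50% growth inhibition is given as GI50.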 The source made the active and inactive calls. Rule as the data show it: active = GI50 up to about 1.1 µM and inactive = higher.

Turning to `O=c1cc(/N=N\c2ccc(Cl)cc2)[nH]c(=O)[nH]1`, the GI50 is 3.48 µM (inactive) in assay [1]; 7.74 µM (inactive) in assay [2]; 10.1 µM (inactive) in assay [3]; 4.69 µM (inactive) in assay [4]; 0.923 µM (active) in assay [5]; 2.07 µM (inactive) in assay [6]. Further, the GI50 in [7] is 3.43 µM (inactive); in assay [8], 4.09 µM (inactive); in [9] it was 4.71 µM (inactive); in assay [10] it was 3.98 µM (inactive); in assay [11] it was 4.61 µM (inactive); in assay [12], 12.9 µM (inactive). In addition, the GI50 was 2.9 µM (inactive) in assay [13]; 6.37 µM (inactive) in assay [14]; 3.97 µM (inactive) in assay [15]; 4.82 µM (inactive) in [16]; 4.84 µM (inactive) in assay [17]; 1.96 µM in assay [18]. Besides, in assay [19], the GI50 was 10.6 µM (inactive).

As for `C/C(=N/NC(=S)N1CCCCC1)c1ccccc1O`, the GI50 in assay [1] is > 31.6 µM (inactive); in assay [2] it was > 100 µM (inactive); in assay [3], > 31.6 µM (inactive); in assay [4], > 31.6 µM (inactive); in assay [5] it was > 31.6 µM (inactive); in assay [6], > 31.6 µM (inactive). The GI50 was 22.8 µM (inactive) in [7]; 29.9 µM (inactive) in assay [8]; > 31.6 µM (inactive) in assay [9]; > 31.6 µM (inactive) in [10]; 21.5 µM (inactive) in [11]; > 31.6 µM (inactive) in assay [12]. The GI50 in [13] was > 31.6 µM (inactive); in assay [14] it was > 31.6 µM (inactive); in [15], 14.3 µM (inactive); in [16], > 31.6 µM (inactive); in [17], > 31.6 µM (inactive); in assay [18], more than 31.6 µM. In addition, the GI50 in assay [19] is 60.8 µM (inactive).

As to `COc1ccc2oc3c(C)cc4c(OC)nnc(OC)c4c3c2c1`, the GI50 is 9.31 µM (inactive) in assay [1]; 17.7 µM (inactive) in assay [2]; 9.57 µM (inactive) in assay [3]; 68.2 µM (inactive) in assay [4]; 34 µM (inactive) in assay [5]; 10.9 µM (inactive) in assay [6]. For the same compound, the GI50 in assay [7] was 6.87 µM (inactive); in assay [8] it was 17.9 µM (inactive); in [9] it was 18 µM (inactive); in assay [10] it was 7.76 µM (inactive); in assay [11], 6.53 µM (inactive); in assay [12] it was 30.8 µM (inactive). Further, the GI50 in [13] is 2.81 µM (inactive); in assay [14], 58.1 µM (inactive); in assay [15], 16.3 µM (inactive); in assay [16], 6.93 µM (inactive); in [17], 25.4 µM (inactive); in assay [18], 7.83 µM. Further, the GI50 in [19] was 6.15 µM (inactive).

Consider `COc1ccc2nc3cc([N+](=O)[O-])ccc3c(NNc3ccc(Cl)cc3)c2c1`, for which the GI50 is 2.44 µM (inactive) in assay [1]; 21.8 µM (inactive) in assay [2]; 17.2 µM (inactive) in assay [3]; 70 µM (inactive) in assay [4]; 0.16 µM (active) in assay [5]; 20.9 µM (inactive) in [6]. The GI50 in assay [7] was 14.8 µM (inactive); in assay [8] it was 26.2 µM (inactive); in assay [9], 31.6 µM (inactive); in assay [10] it was 33.1 µM (inactive); in [11], 43.5 µM (inactive); in [12] it was 1.1 µM (active). Further, the GI50 in assay [13] was 26.1 µM (inactive); in assay [14], > 39.7 µM (inactive); in assay [15], 11.6 µM (inactive); in [16], 34.3 µM (inactive); in assay [17], 26.1 µM (inactive); in assay [18], 45.5 µM. The GI50 in assay [19] was 14.7 µM (inactive).

For the compound `COC1(CC[C@@H](C)COC2OC(CO)C(O)C(O)C2O)O[C@H]2C[C@H]3[C@@H]4CC=C5C[C@@H](OC6OC(CO)C(O)C(OC7OC(CO)C(O)C(O)C7O)C6OC6OC(C)C(O)C(O)C6O)CC[C@]5(C)[C@H]4CC[C@]3(C)[C@H]2[C@@H]1C` (stereo not given in full), the GI50 in assay [1] was 3.19 µM (inactive); in assay [2] it was 10.4 µM (inactive); in assay [3], 2.68 µM (inactive); in assay [4], 5.45 µM (inactive); in [5], 6.35 µM (inactive); in [6], 2.46 µM (inactive). Moreover, the GI50 in assay [7] is > 20.6 µM (inactive); in [8] it was 15.9 µM (inactive); in [9] it was 8.63 µM (inactive); in [10], 10.2 µM (inactive); in [11], 10.2 µM (inactive); in assay [12], 9.95 µM (inactive). Moreover, the GI50 in [13] was 16 µM (inactive); in [14], 5.71 µM (inactive); in assay [15], 16 µM (inactive); in assay [16], 4.5 µM (inactive); in assay [17], 2.77 µM (inactive); in assay [18], 3.28 µM. Also, the GI50 in [19] is 9.84 µM (inactive).

On to `CC(O)CCNC(=O)Nc1c(C(F)(F)F)cc(-c2ccccc2)[nH]c1=O` (stereo not given), for which the GI50 in assay [1], in assay [2], in assay [3], in [4], in assay [5] and in [6] was > 100 µM (inactive) each time. Moreover, the GI50 in [7], in [8], in [9], in assay [10], in assay [11] and in assay [12] was > 100 µM (inactive) in each case. Besides, the GI50 is > 100 µM (inactive) in assay [13]; > 100 µM (inactive) in assay [14]; > 100 µM (inactive) in [15]; > 100 µM (inactive) in [16]; > 100 µM (inactive) in assay [17]; more than 100 µM in assay [18]. In addition, the GI50 in [19] was > 100 µM (inactive).

Take `O=c1c2c(no[n+]2[O-])c2ccccc2n1-c1ccccc1`: the GI50 is 4.05 µM (inactive) in assay [1]; 15.1 µM (inactive) in [2]; 17.9 µM (inactive) in [3]; 5.46 µM (inactive) in assay [4]; 2.65 µM (inactive) in assay [5]; 8.47 µM (inactive) in assay [6]. Also, the GI50 was 2.74 µM (inactive) in assay [7]; 12.6 µM (inactive) in assay [8]; 3.4 µM (inactive) in [9]; 6.01 µM (inactive) in assay [10]; 8.22 µM (inactive) in [11]; 9.93 µM (inactive) in [12]. For the same compound, the GI50 was 3.03 µM (inactive) in assay [13]; 6.55 µM (inactive) in [14]; 4.57 µM (inactive) in assay [15]; 11.9 µM (inactive) in [16]; 5.43 µM (inactive) in assay [17]; 2.94 µM in assay [18]. Also, the GI50 in [19] is 11.1 µM (inactive).

Regarding `N=C(N)NCC[C@H](NC(=O)OCCCCCn1ccc(=O)[nH]c1=O)C(=O)O`, the GI50 in assay [1], in assay [2], in assay [3], in assay [4], in [5] and in assay [6] was > 100 µM (inactive) throughout. The GI50 in [7], in [8], in assay [9], in [10], in [11] and in [12] was > 100 µM (inactive) each time. Further, the GI50 is > 100 µM (inactive) in assay [13]; > 100 µM (inactive) in [14]; > 100 µM (inactive) in assay [15]; > 100 µM (inactive) in [16]; > 100 µM (inactive) in assay [17]; more than 100 µM in assay [18]. Also, the GI50 in [19] was > 100 µM (inactive).

Take `CC(C)CC(NC=O)C(=O)NC(Cc1ccccc1)NC(=O)CNC(=O)C(C)NC(=O)C(N)Cc1ccc(O)cc1` (stereo not given): the GI50 in [1], in assay [2], in assay [3], in assay [4], in [5] and in assay [6] was > 100 µM (inactive) throughout. The GI50 in assay [7], in [8], in assay [9], in assay [10], in assay [11] and in [12] was > 100 µM (inactive) in each case. For the same compound, the GI50 in assay [13] was > 100 µM (inactive); in [14] it was > 100 µM (inactive); in assay [15], > 100 µM (inactive); in assay [16], > 100 µM (inactive); in [17], > 100 µM (inactive); in assay [18], more than 100 µM. Also, the GI50 in assay [19] was > 100 µM (inactive).

For `COc1ccc([N+](=O)[O-])c2c(NCCCN(C)C)ccnc12`, the GI50 in [1] was 3.61 µM (inactive); in [2] it was 3.66 µM (inactive); in assay [3] it was 3.37 µM (inactive); in [4], > 63.4 µM (inactive); in [5], 8.39 µM (inactive); in assay [6], 1.78 µM (inactive). For the same compound, the GI50 was 1.77 µM (inactive) in [7]; 4.92 µM (inactive) in assay [8]; 12.1 µM (inactive) in [9]; 7.29 µM (inactive) in assay [10]; 6.18 µM (inactive) in assay [11]; 7.31 µM (inactive) in assay [12]. The GI50 was 1.8 µM (inactive) in assay [13]; 2.31 µM (inactive) in assay [14]; 5.01 µM (inactive) in assay [15]; 4.39 µM (inactive) in assay [16]; 9.1 µM (inactive) in assay [17]; 1.85 µM in assay [18]. In addition, in assay [19], the GI50 is 2.12 µM (inactive).

Values taken from ChEMBL document CHEMBL1201862, “PubChem BioAssay data set” (2004).
